These are literature values, as cited in patent US20090005367A1, “COMPOSITION AND METHOD FOR TREATING ALCOHOLISM AND OTHER SUBSTANCE ADDICTIONS” (priority 2006, published 2009).

Test in data set [1]: not given
This is another data set of the same source.

Test in data set [2]: not given
This is another data set of the same source.

For data set [3] the following is noted: oral / gastrointestinal tract.
For another data set, the system named is aldehyde dehydrogenase. To be noted: blood, after alcohol ingestion.

Like-named read-outs stand apart in the source and are kept apart here.

As for `Cc1nnc2n1-c1ccc(Cl)cc1C(c1ccccc1)=NC2` [Alprazolam], where the note is “parent drug”, the “Elimination Half-Life” value is 6 to 12 h.
For the compound `CN1[C@@H]2CC[C@H]1C[C@@H](OC(=O)C(CO)c1ccccc1)C2` (stereo partly shown) [Atropine], the “excreted in the urine as unchanged drug” value in data set [1] was 30-50%.
Regarding `O=C1CN=C(c2ccccn2)c2cc(Br)ccc2N1` [Bromazepam], where the note is “parent drug”, the “Elimination Half-Life” value is 10 to 20 h.
Regarding `CNC1=Nc2ccc(Cl)cc2C(c2ccccc2)=[N+]([O-])C1` [Chlordiazepoxide], under “parent drug”, the “Elimination Half-Life” value is 5 to 30 h.
`N#CCCN1C(=O)C(O)N=C(c2ccccc2F)c2cc(Cl)ccc21` (stereo not shown) [Cinolazepam]: under “parent drug”, the “Elimination Half-Life” value was 9 h.
On to `CN1C(=O)CC(=O)N(c2ccccc2)c2cc(Cl)ccc21` [Clobazam], for which the “Elimination Half-Life” value (parent drug) is 12 to 60 h.
As to `O=C1CN=C(c2ccccc2Cl)c2cc([N+](=O)[O-])ccc2N1` [Clonazepam], the Elimination Half-Life is 30 to 40 h. The “time until full effects occur after ingestion” value in data set [2] is 1 to 4 h. The duration of action in data set [2] (in vivo) was 30 to 40 h. For the same compound, the “Elimination Half-Life” value (parent drug) is 18 to 50 h. In data set [3], the absorption entry was “rapidly and completely absorbed”.
On to `CCN(CC)C(=S)SSC(=S)N(CC)CC` [Disulfiram, bis(diethylthiocarbamoyl)disulfide], for which the “time until full effects occur after ingestion” value in data set [2] was 12 h. In addition, the “time effective following administration of the last dose” value in data set [2] (after last dose) is given as “approximately one to two”. Besides, in the data set on aldehyde dehydrogenase, the “concentration of acetaldehyde compared with same amount of alcohol without disulfiram” value is recorded as 5 to 10 times higher.
With `Clc1ccc2c(c1)C(c1ccccc1)=NCc1nncn1-2` [Estazolam], the “Elimination Half-Life” value (parent drug) is 10 to 24 h.
On to `CC1=CC(=O)N2CC(=O)N(C)c3ccc(Cl)cc3C2(c2ccccc2)O1` (stereo not shown) [Ketazolam], for which the “Elimination Half-Life” value (parent drug) is 2 h.
With `CN1CCN(/C=C2\N=C3CN=C(c4ccccc4Cl)c4cc([N+](=O)[O-])ccc4N3C2=O)CC1` [Loprazolam], where the note is “parent drug”, the “Elimination Half-Life” value is 6 to 12 h.
For `O=C1Nc2ccc(Cl)cc2C(c2ccccc2Cl)=NC1O` (stereo not shown) [Lorazepam], under “parent drug”, the “Elimination Half-Life” value is 10 to 20 h.
As to `CN1C(=O)C(O)N=C(c2ccccc2Cl)c2cc(Cl)ccc21` (stereo not shown) [Lormetazepam], where the note is “parent drug”, the “Elimination Half-Life” value was 10 to 12 h.
`CN1CCN=C(c2ccccc2)c2cc(Cl)ccc21` [Medazepam]: the “Elimination Half-Life” value (parent drug) was 36 to 200 h.
As to `Cc1ncc2n1-c1ccc(Cl)cc1C(c1ccccc1F)=NC2` [Midazolam], the “Elimination Half-Life (h)” value (parent drug) was 3 hours (1.8-6.
For `O=C1CN=C(c2ccccc2)c2cc([N+](=O)[O-])ccc2N1` [Nitrazepam], for the setting “parent drug”, the “Elimination Half-Life” value is 15 to 38 h.
Consider `Fc1ccccc1C1=NCC(=S)N(CC(F)(F)F)c2ccc(Cl)cc21` [Quazepam], for which the “Elimination Half-Life” value (parent drug) is 25 to 100 h.
Turning to `CN1C(=O)CN=C(C2=CCCCC2)c2cc(Cl)ccc21` [Tetrazepam], for the setting “parent drug”, the “Elimination Half-Life” value was 3 to 26 h.
As to `Cc1nnc2n1-c1ccc(Cl)cc1C(c1ccccc1Cl)=NC2` [Triazolam], under “parent drug”, the “Elimination Half-Life” value is 2 h.
